Literature values as cited in article PMC12729893, “Untargeted UHPLC-HRMS Metabolomic Profiling of Cornus mas L. Fruits: Impact of Conventional and Emerging Extraction Methods on Phenolic Composition and Bioactivity” (Antioxidants, 2025).

Key:
[1] = system: α-glucosidase
[2] = system: α-amylase

Row | Structure (SMILES) | α-glucosidase inhibition according to computational analysis [1] | α-amylase inhibition according to computational analysis [2]
1 | C[C@@H]1O[C@@H](OC[C@H]2O[C@@H](Oc3cc4c(O)cc(O)cc4[o+]c3-c3ccc(O)cc3)[C@H](O)[C@@H](O)[C@H]2O)[C@H](O)[C@H](O)[C@H]1O [pelargonidin 3-robinobioside] | most potent inhibitor | 
2 | O=c1oc2c(O)c(O)cc3c(=O)oc4c(O)c(O)cc1c4c23 [ellagic acid] | most effective inhibitors | most effective inhibitors
